Measurements taken from ChEMBL document CHEMBL4138123, “Design, synthesis and biological evaluation of novel pyrazolochalcones as potential modulators of PI3K/Akt/mTOR pathway and inducers of apoptosis in breast cancer cells” (Eur J Med Chem, 2017).

Legend:
Type in all cases: functional
NCI-H322M = assay: Cytotoxicity against human NCI-H322M cells assessed as cell growth at 1 uM after 48 hrs by sulforhodamine B assay relative to control; details: read-out: Activity
TK-10 [1] = assay: Cytotoxicity against human TK10 cells assessed as cell growth at 0.01 uM after 48 hrs by sulforhodamine B assay relative to control; details: TK-10, 48 h, read-out: Activity
MDA-MB-468 [2] = assay: Cytotoxicity against human MDA-MB-468 cells assessed as cell growth at 10 uM after 48 hrs by sulforhodamine B assay relative to control; details: MDA-MB-468, 48 h, read-out: Activity
OVCAR-3 [3] = assay: Cytotoxicity against human OVCAR3 cells assessed as cell growth at 100 uM after 48 hrs by sulforhodamine B assay relative to control; details: OVCAR-3, 48 h, read-out: Activity
NCI-H23 = assay: Cytotoxicity against human NCI-H23 cells assessed as cell growth at 0.1 uM after 48 hrs by sulforhodamine B assay relative to control; details: NCI-H23, 48 h, read-out: Activity
OVCAR-4 = assay: Cytotoxicity against human OVCAR4 cells assessed as cell growth at 0.01 uM after 48 hrs by sulforhodamine B assay relative to control; details: OVCAR-4, 48 h, read-out: Activity
RPMI-8226 = assay: Cytotoxicity against human RPMI8226 cells assessed as cell growth at 0.1 uM after 48 hrs by sulforhodamine B assay relative to control; details: RPMI-8226, 48 h, read-out: Activity
OVCAR-8 [4] = assay: Cytotoxicity against human OVCAR8 cells assessed as cell growth at 0.1 uM after 48 hrs by sulforhodamine B assay relative to control; details: OVCAR-8, 48 h, read-out: Activity
HCC 2998 = assay: Cytotoxicity against human HCC2998 cells assessed as cell growth at 0.01 uM after 48 hrs by sulforhodamine B assay relative to control; details: HCC 2998, 48 h, read-out: Activity
SF-539 = assay: Cytotoxicity against human SF539 cells assessed as growth inhibition after 48 hrs by sulforhodamine B assay; details: SF-539, 48 h
Hs-578T = assay: Cytotoxicity against human Hs 578T cells assessed as cell growth at 10 uM after 48 hrs by sulforhodamine B assay relative to control; details: read-out: Activity
OVCAR-5 [5] = assay: Cytotoxicity against human OVCAR5 cells assessed as cell growth at 0.1 uM after 48 hrs by sulforhodamine B assay relative to control; details: OVCAR-5, 48 h, read-out: Activity
COLO 205 = assay: Cytotoxicity against human COLO205 cells assessed as cell growth at 10 uM after 48 hrs by sulforhodamine B assay relative to control; details: COLO 205, 48 h, read-out: Activity
OVCAR-5 [6] = assay: Cytotoxicity against human OVCAR5 cells assessed as cell growth at 1 uM after 48 hrs by sulforhodamine B assay relative to control; details: OVCAR-5, 48 h, read-out: Activity
MDA-MB-468 [7] = assay: Cytotoxicity against human MDA-MB-468 cells assessed as cell growth at 1 uM after 48 hrs by sulforhodamine B assay relative to control; details: MDA-MB-468, 48 h, read-out: Activity
UO-31 = assay: Cytotoxicity against human UO31 cells assessed as cell growth at 1 uM after 48 hrs by sulforhodamine B assay relative to control; details: UO-31, 48 h, read-out: Activity
SK-MEL-28 = assay: Cytotoxicity against human SK-MEL-28 cells assessed as cell growth at 1 uM after 48 hrs by sulforhodamine B assay relative to control; details: SK-MEL-28, 48 h, read-out: Activity
HL-60(TB) = assay: Cytotoxicity against human HL-60(TB) cells assessed as cell growth at 0.01 uM after 48 hrs by sulforhodamine B assay relative to control; details: HL-60, 48 h, read-out: Activity
BT-549 = assay: Cytotoxicity against human BT549 cells assessed as cell growth at 0.1 uM after 48 hrs by sulforhodamine B assay relative to control; details: BT-549, 48 h, read-out: Activity
HCT-15 = assay: Cytotoxicity against human HCT15 cells assessed as cell growth at 0.01 uM after 48 hrs by sulforhodamine B assay relative to control; details: HCT-15, 48 h, read-out: Activity
IGROV-1 = assay: Cytotoxicity against human IGROV1 cells assessed as cell growth at 100 uM after 48 hrs by sulforhodamine B assay relative to control; details: IGROV-1, 48 h, read-out: Activity
K562 = assay: Cytotoxicity against human K562 cells assessed as cell growth at 10 uM after 48 hrs by sulforhodamine B assay relative to control; details: K562, 48 h, read-out: Activity
A498 = assay: Cytotoxicity against human A498 cells assessed as cell growth at 10 uM after 48 hrs by sulforhodamine B assay relative to control; details: A498, 48 h, read-out: Activity
NCI/ADR-RES = assay: Cytotoxicity against human NCI/ADR-RES cells assessed as cell growth at 0.01 uM after 48 hrs by sulforhodamine B assay relative to control; details: read-out: Activity
SK-MEL-5 [8] = assay: Cytotoxicity against human SK-MEL-5 cells assessed as cell growth at 1 uM after 48 hrs by sulforhodamine B assay relative to control; details: SK-MEL-5, 48 h, read-out: Activity
OVCAR-3 [9] = assay: Cytotoxicity against human OVCAR3 cells assessed as cell growth at 10 uM after 48 hrs by sulforhodamine B assay relative to control; details: OVCAR-3, 48 h, read-out: Activity
A549 = assay: Cytotoxicity against human A549/ATCC cells assessed as cell growth at 100 uM after 48 hrs by sulforhodamine B assay relative to control; details: A549, 48 h, read-out: Activity
UACC-62 = assay: Cytotoxicity against human UACC62 cells assessed as cell growth at 0.01 uM after 48 hrs by sulforhodamine B assay relative to control; details: UACC-62, 48 h, read-out: Activity
SK-OV-3 = assay: Cytotoxicity against human SKOV3 cells assessed as cell growth at 10 uM after 48 hrs by sulforhodamine B assay relative to control; details: SK-OV-3, 48 h, read-out: Activity
TK-10 [10] = assay: Cytotoxicity against human TK10 cells assessed as cell growth at 1 uM after 48 hrs by sulforhodamine B assay relative to control; details: TK-10, 48 h, read-out: Activity
OVCAR-3 [11] = assay: Cytotoxicity against human OVCAR3 cells assessed as cell growth at 1 uM after 48 hrs by sulforhodamine B assay relative to control; details: OVCAR-3, 48 h, read-out: Activity
MOLT-4 = assay: Cytotoxicity against human MOLT4 cells assessed as cell growth at 0.1 uM after 48 hrs by sulforhodamine B assay relative to control; details: MOLT-4, 48 h, read-out: Activity
OVCAR-8 [12] = assay: Cytotoxicity against human OVCAR8 cells assessed as cell growth at 0.01 uM after 48 hrs by sulforhodamine B assay relative to control; details: OVCAR-8, 48 h, read-out: Activity
SK-MEL-5 [13] = assay: Cytotoxicity against human SK-MEL-5 cells assessed as growth inhibition after 48 hrs by sulforhodamine B assay; details: SK-MEL-5, 48 h
RXF 393 = assay: Cytotoxicity against human RXF393 cells assessed as cell growth at 100 uM after 48 hrs by sulforhodamine B assay relative to control; details: RXF 393, 48 h, read-out: Activity

Compound	growth at 1 µM (NCI-H322M) [%]	growth at 0.01 µM (TK-10 [1]) [%]	growth at 10 µM (MDA-MB-468 [2]) [%]	growth at 100 µM (OVCAR-3 [3]) [%]	growth at 0.1 µM (NCI-H23) [%]	growth at 0.01 µM (OVCAR-4) [%]	growth at 0.1 µM (RPMI-8226) [%]	growth at 0.1 µM (OVCAR-8 [4]) [%]	growth at 0.01 µM (HCC 2998) [%]	LC50 (concentration killing 50% of cells) (SF-539) [µM]	TGI (SF-539) [µM]	growth at 10 µM (Hs-578T) [%]	growth at 0.1 µM (OVCAR-5 [5]) [%]	growth at 10 µM (COLO 205) [%]	growth at 1 µM (OVCAR-5 [6]) [%]	growth at 1 µM (MDA-MB-468 [7]) [%]	growth at 1 µM (UO-31) [%]	growth at 1 µM (SK-MEL-28) [%]	growth at 0.01 µM (HL-60(TB)) [%]	growth at 0.1 µM (BT-549) [%]	other results
COc1cc(-c2cc(/C=C/C(=O)c3ccc4c(c3)OCO4)[nH]n2)cc(OC)c1OC	93	89	-88	-38	93	91	83	99	104	25.4	5.73	17	91	-66	88	74	81	92	98	99	growth at 0.01 µM (HCT-15): 95%; growth at 100 µM (IGROV-1): -8%; growth at 10 µM (K562): -1%; growth at 10 µM (A498): 9%; growth at 0.01 µM (NCI/ADR-RES): 96%; growth at 1 µM (SK-MEL-5 [8]): 95%; growth at 10 µM (OVCAR-3 [9]): 4%; growth at 100 µM (A549): 8%; growth at 0.01 µM (UACC-62): 98%; growth at 10 µM (SK-OV-3): 33%; growth at 1 µM (TK-10 [10]): 97%; growth at 1 µM (OVCAR-3 [11]): 102%; growth at 0.1 µM (MOLT-4): 103%; growth at 0.01 µM (OVCAR-8 [12]): 99%; LC50 (concentration killing 50% of cells) (SK-MEL-5 [13]): > 100 µM; TGI (SK-MEL-5 [13]): > 100 µM; growth at 100 µM (RXF 393): -89%
COc1ccc(-c2cc(/C=C/C(=O)c3ccc4c(c3)OCO4)[nH]n2)cc1OC																					GI50 (SF-539): 0.52 µM; GI50 (SK-MEL-5 [13]): 1.58 µM
COc1cc(C(=O)/C=C/c2cc(-c3cc(OC)c(OC)c(OC)c3)n[nH]2)cc(OC)c1OC	89	99	-90	-98	101	95	83	94	102	6.23	2.83	10	101	-100	89	59	62	100	112	105	growth at 0.01 µM (HCT-15): 95%; growth at 100 µM (IGROV-1): -97%; growth at 10 µM (A498): -64%; growth at 0.01 µM (NCI/ADR-RES): 105%; growth at 1 µM (SK-MEL-5 [8]): 86%; growth at 10 µM (OVCAR-3 [9]): -96%; growth at 100 µM (A549): -66%; growth at 0.01 µM (UACC-62): 97%; growth at 10 µM (SK-OV-3): 5%; growth at 1 µM (TK-10 [10]): 80%; growth at 1 µM (OVCAR-3 [11]): 97%; growth at 0.1 µM (MOLT-4): 112%; growth at 0.01 µM (OVCAR-8 [12]): 100%; LC50 (concentration killing 50% of cells) (SK-MEL-5 [13]): 5.49 µM; TGI (SK-MEL-5 [13]): 2.94 µM; growth at 100 µM (RXF 393): -98%
COc1ccc(C(=O)/C=C/c2cc(-c3ccc4c(c3)OCO4)n[nH]2)cc1OC	92	91	-45	-67	89	96	97	98	98	11.9	4.47	-9	95	14	86	85	79	96	97	99	growth at 0.01 µM (HCT-15): 92%; growth at 100 µM (IGROV-1): -59%; growth at 10 µM (K562): 4%; growth at 10 µM (A498): -43%; growth at 1 µM (SK-MEL-5 [8]): 95%; growth at 10 µM (OVCAR-3 [9]): -47%; growth at 100 µM (A549): -14%; growth at 0.01 µM (UACC-62): 98%; growth at 10 µM (SK-OV-3): 17%; growth at 1 µM (TK-10 [10]): 97%; growth at 1 µM (OVCAR-3 [11]): 92%; growth at 0.1 µM (MOLT-4): 97%; growth at 0.01 µM (OVCAR-8 [12]): 99%; LC50 (concentration killing 50% of cells) (SK-MEL-5 [13]): 46.4 µM; TGI (SK-MEL-5 [13]): 19.9 µM; growth at 100 µM (RXF 393): -95%
